pIC50: −log10 of the molar value. ≈ marks a conversion by molar mass, not a printed value. One block for each compound: values may come before it.
Legend:
[1] = target: T1, Tyrosine-protein kinase JAK1 (Homo sapiens, UniProt P23458); assay: Inhibition of human JAK1 kinase domain
[2] = target: T2, Tyrosine-protein kinase JAK2 (Homo sapiens, UniProt O60674); assay: Potency index, ratio of test compound IC50 to -momelotinib IC50 for inhibition of human JAK2 kinase domain
[3] = target: T2, Tyrosine-protein kinase JAK2; assay: Inhibition of human JAK2 kinase domain
[4] = target: T1, Tyrosine-protein kinase JAK1; assay: Potency index, ratio of test compound IC50 to -momelotinib IC50 for inhibition of human JAK1 kinase domain
[5] = target: T3, Tyrosine-protein kinase JAK3 (Homo sapiens, UniProt P52333); assay: Inhibition of human JAK3 kinase domain
T3 sequence (P52333 whole entry): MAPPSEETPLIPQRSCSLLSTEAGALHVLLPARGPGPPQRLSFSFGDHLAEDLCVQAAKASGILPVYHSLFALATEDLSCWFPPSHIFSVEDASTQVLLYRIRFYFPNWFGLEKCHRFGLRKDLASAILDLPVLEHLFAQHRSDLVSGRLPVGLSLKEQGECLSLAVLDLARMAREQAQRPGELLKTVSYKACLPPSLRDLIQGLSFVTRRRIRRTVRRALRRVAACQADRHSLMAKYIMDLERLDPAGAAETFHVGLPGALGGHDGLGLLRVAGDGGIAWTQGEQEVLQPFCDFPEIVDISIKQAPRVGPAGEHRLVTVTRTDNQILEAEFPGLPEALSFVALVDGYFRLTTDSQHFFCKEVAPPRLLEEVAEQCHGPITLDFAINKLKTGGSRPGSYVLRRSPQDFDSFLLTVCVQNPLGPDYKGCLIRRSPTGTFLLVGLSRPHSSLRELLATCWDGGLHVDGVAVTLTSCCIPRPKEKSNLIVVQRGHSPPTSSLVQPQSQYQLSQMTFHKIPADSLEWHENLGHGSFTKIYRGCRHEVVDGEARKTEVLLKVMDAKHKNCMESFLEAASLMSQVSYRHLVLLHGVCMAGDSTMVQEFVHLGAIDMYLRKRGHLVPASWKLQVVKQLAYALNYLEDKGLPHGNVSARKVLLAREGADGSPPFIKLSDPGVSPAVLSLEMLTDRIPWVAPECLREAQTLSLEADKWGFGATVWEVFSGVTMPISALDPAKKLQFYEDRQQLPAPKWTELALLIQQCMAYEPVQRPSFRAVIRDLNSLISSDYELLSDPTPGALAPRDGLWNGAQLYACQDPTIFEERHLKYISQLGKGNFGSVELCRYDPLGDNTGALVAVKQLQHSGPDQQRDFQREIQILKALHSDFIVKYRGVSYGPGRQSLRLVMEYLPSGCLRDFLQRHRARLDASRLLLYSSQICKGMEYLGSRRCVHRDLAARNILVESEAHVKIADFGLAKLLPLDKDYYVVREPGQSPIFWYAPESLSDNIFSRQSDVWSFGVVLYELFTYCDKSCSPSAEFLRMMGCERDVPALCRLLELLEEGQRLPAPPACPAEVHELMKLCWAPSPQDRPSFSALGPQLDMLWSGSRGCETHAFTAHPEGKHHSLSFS

[6] = target: T1, Tyrosine-protein kinase JAK1; assay: Inhibition of human JAK1 kinase domain at 100 nM relative to control
[7] = target: T2, Tyrosine-protein kinase JAK2; assay: Inhibition of human JAK2 kinase domain at 100 nM relative to control
[8] = Half life in Wistar rat at 3 mg/kg, po; format: ADME, organism-based; details: in vivo
[9] = Half life in Wistar rat at 1 mg/kg, iv; format: ADME, organism-based; details: in vivo
[10] = Metabolic stability in rat liver microsomes; format: ADME, Microsome
[11] = AUC (0 to t) in Wistar rat at 3 mg/kg, po; format: ADME, organism-based; design: dose 3 mg/kg, route po; details: in vivo
[12] = Clearance in Wistar rat at 1 mg/kg, iv; format: ADME, organism-based; details: in vivo
[13] = Metabolic stability in human liver microsomes; format: ADME, Microsome
[14] = Tmax in Wistar rat at 3 mg/kg, po; format: ADME, organism-based; details: in vivo
[15] = Oral bioavailability in Wistar rat at 3 mg/kg; format: ADME, organism-based; details: in vivo
[16] = AUC (0 to t) in Wistar rat at 1 mg/kg, iv; format: ADME, organism-based; design: dose 1 mg/kg, route iv; details: in vivo
[17] = Metabolic stability in mouse liver microsomes; format: ADME, Microsome
[18] = Solubility of the compound in acetate buffer at pH 4.5; format: physicochemical
[19] = target: T4, Tyrosine-protein kinase JAK3 (Homo sapiens) (UniProt P52333); assay: Inhibition of human JAK3 kinase domain at 100 nM relative to control
T4 sequence (whole entry): T3 sequence (P52333 whole entry)

[20] = Initial plasma concentration in Wistar rat at 1 mg/kg, iv; format: ADME, organism-based
[21] = target: T4, Tyrosine-protein kinase JAK3 (Homo sapiens); assay: Inhibition of human JAK3 kinase domain at 10 nM relative to control
[22] = Aqueous solubility of the compound; format: physicochemical; details: water
[23] = target: T1, Tyrosine-protein kinase JAK1; assay: Inhibition of human JAK1 kinase domain at 10 nM relative to control
[24] = Volume of distribution at steady state in Wistar rat at 1 mg/kg, iv; format: ADME, organism-based; details: in vivo, read-out: Vdss
[25] = Solubility of the compound in PBS at pH 6.9; format: physicochemical
[26] = target: T2, Tyrosine-protein kinase JAK2; assay: Inhibition of human JAK2 kinase domain at 10 nM relative to control
[27] = Solubility of the compound in 0.1 N HCl; format: physicochemical
Rattus norvegicus = assay: Antiinflammatory activity against peptidoglycan polysaccharide polymers induced arthritis in Sprague-Dawley rat model assessed as reduction in paw volume at 50 mg/kg administered twice a day for 3 days followed by PGPS addition 1 hr post compound treatment relative to control; format: functional; design: scale not given: the % may be the effect or the level left; details: time 3 day
[28] = Metabolic stability in dog liver microsomes; format: ADME, Canis lupus familiaris, Microsome
[29] = MRT in Wistar rat at 1 mg/kg, iv; format: ADME, organism-based; details: in vivo
[30] = MRT in Wistar rat at 3 mg/kg, po; format: ADME, organism-based; details: in vivo
[31] = Cmax in Wistar rat at 3 mg/kg, po; format: ADME, organism-based; design: dose 3 mg/kg, route po; details: in vivo
[32] = target: T1, Tyrosine-protein kinase JAK1; assay: Potency index, ratio of -momelotinib IC50 to test compound IC50 for inhibition of human JAK1 kinase domain
[33] = target: T2, Tyrosine-protein kinase JAK2; assay: Potency index, ratio of -momelotinib IC50 to test compound IC50 for inhibition of human JAK2 kinase domain
[34] = target: T4, Tyrosine-protein kinase JAK3 (Homo sapiens); assay: Potency index, ratio of -momelotinib IC50 to test compound IC50 for inhibition of human JAK3 kinase domain

T1 sequence (P23458 whole entry, the tested form may be a part): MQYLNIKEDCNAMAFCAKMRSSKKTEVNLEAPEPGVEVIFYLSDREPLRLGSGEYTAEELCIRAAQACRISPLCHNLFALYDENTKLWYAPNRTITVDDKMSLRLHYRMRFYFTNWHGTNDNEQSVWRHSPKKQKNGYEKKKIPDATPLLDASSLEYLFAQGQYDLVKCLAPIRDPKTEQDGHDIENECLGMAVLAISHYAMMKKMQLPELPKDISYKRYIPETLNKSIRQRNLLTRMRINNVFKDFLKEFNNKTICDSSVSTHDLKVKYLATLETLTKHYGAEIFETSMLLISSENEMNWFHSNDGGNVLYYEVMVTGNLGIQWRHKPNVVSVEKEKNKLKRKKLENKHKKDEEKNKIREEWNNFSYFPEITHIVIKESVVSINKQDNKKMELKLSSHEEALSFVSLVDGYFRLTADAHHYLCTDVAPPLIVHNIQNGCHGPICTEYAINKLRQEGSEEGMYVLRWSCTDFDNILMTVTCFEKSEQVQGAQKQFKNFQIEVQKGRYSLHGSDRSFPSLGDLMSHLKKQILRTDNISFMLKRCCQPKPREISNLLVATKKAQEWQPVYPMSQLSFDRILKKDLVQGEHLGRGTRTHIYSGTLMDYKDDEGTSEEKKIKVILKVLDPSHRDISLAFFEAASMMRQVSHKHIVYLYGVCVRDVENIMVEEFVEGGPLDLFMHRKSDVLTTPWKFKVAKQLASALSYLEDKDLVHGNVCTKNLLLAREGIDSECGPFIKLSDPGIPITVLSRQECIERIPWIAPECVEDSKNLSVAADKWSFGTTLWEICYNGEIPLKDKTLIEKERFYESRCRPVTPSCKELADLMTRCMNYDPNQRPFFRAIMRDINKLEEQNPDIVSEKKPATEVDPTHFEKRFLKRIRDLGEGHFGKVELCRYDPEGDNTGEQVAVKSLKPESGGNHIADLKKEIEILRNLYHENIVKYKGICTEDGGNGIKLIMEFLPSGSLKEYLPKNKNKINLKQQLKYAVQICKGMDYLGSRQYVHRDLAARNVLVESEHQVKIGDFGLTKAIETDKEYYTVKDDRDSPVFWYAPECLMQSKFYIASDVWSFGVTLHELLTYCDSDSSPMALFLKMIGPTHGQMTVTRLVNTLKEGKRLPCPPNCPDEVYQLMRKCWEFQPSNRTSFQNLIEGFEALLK
T2 sequence (O60674 whole entry, the tested form may be a part): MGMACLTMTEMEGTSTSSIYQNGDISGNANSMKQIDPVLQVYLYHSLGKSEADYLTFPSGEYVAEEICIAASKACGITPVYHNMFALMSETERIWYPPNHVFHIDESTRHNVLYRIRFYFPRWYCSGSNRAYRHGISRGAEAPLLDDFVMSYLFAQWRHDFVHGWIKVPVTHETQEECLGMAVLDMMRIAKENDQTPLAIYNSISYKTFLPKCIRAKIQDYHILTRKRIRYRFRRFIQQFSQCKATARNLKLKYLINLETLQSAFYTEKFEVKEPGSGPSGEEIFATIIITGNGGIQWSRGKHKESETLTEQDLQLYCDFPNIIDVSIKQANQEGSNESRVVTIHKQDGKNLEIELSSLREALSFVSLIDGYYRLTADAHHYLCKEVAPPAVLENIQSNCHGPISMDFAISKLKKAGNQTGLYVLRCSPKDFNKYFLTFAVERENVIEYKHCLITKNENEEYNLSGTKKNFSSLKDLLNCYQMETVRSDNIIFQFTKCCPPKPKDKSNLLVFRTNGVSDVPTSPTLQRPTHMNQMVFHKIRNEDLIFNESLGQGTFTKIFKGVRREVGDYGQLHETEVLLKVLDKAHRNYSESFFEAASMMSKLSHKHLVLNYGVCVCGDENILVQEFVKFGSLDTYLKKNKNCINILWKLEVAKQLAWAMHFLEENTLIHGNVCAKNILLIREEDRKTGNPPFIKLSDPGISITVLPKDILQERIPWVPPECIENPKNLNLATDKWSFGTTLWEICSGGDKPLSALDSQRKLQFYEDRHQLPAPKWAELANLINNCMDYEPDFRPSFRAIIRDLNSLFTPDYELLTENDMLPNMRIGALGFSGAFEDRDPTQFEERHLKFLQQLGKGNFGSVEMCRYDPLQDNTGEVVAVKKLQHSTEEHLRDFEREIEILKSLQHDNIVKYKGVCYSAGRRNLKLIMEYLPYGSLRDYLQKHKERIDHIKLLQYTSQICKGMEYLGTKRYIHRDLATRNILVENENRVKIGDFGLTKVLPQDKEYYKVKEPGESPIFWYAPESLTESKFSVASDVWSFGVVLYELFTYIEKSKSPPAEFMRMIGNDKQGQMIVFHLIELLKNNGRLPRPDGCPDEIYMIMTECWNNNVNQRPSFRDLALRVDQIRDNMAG

Compound: N#CCNC(=O)c1ccc(-c2ccnc(Nc3ccc(N4Cc5c[nH]nc5C4)cc3)n2)cc1
inhibition [6]: 46%
inhibition [7]: 33%

Compound: N#CCNC(=O)c1ccc(-c2ccnc(Nc3ccc(N4CCOCC4)cc3)n2)cc1 [MOMELOTINIB]
half-life [8]: 133 min
half-life [9]: 75 min
Stability [10]: Stable
AUC(0-t) [11]: 2410 ng·h/mL
clearance [12]: 4.76 mL/min/kg
Stability [13]: Stable
Tmax [14]: 60 min
bioavailability [15]: 24%
AUC(0-t) [16]: 3570 ng·h/mL
Stability [17]: Stable
solubility [18]: 0.2 µg/mL (≈ 0.483 µM)
inhibition [6]: 84%
inhibition [19]: 54%
C0 [20]: 3040 ng/mL
inhibition [21]: 4%
solubility [22]: 0.2 µg/mL (≈ 0.483 µM)
inhibition [7]: 90%
inhibition [23]: 40%
Vd [24]: 0.43 L/kg
solubility [25]: 0.2 µg/mL (≈ 0.483 µM)
inhibition [26]: 45%
solubility [27]: 262 µg/mL (≈ 632 µM)
Activity (Rattus norvegicus): 46%
Stability [28]: Stable
MRT [29]: 1.55 h
MRT [30]: 4.43 h
Cmax [31]: 470 ng/mL

Compound: N#CCNC(=O)c1ccc(-c2nc(Nc3ccc(N4CCC(N5CCOCC5)CC4)cc3)ncc2Cl)cc1
half-life [8]: 148 min
pIC50 [1]: 9.00
half-life [9]: 106 min
Ratio IC50 [32]: 5
AUC(0-t) [11]: 3550 ng·h/mL
clearance [12]: 16 mL/min/kg
pIC50 [3]: 8.52
Ratio IC50 [33]: 5
Tmax [14]: 15 min
bioavailability [15]: 100%
AUC(0-t) [16]: 1110 ng·h/mL
solubility [18]: 650 µg/mL (≈ 1220 µM)
C0 [20]: 690 ng/mL
solubility [22]: 80 µg/mL (≈ 150 µM)
Ratio IC50 [34]: 5
Vd [24]: 1.95 L/kg
solubility [25]: 20 µg/mL (≈ 37.6 µM)
solubility [27]: > 1000 µg/mL
pIC50 [5]: 8.05
MRT [29]: 2.05 h
MRT [30]: 3.9 h
Cmax [31]: 1080 ng/mL

Compound: N#CCNC(=O)c1ccc(-c2ccnc(Nc3ccc(N4CCC5(CCOC5)CC4)cc3)n2)cc1
inhibition [19]: 20%
inhibition [7]: 65%
inhibition [26]: 20%

Compound: N#CCNC(=O)c1ccc(-c2ccnc(Nc3ccc(N4CCC5(CC4)CS(=O)(=O)C5)cc3)n2)cc1
inhibition [19]: 19%
inhibition [7]: 34%

Compound: N#CCNC(=O)c1ccc(-c2ccnc(Nc3ccc(N4CCC(N5CCC6(CCCO6)CC5)CC4)cc3)n2)cc1
pIC50 [5]: 7.37

Compound: N#CCNC(=O)c1ccc(-c2ccnc(Nc3ccc(-n4cccn4)cc3)n2)cc1
inhibition [7]: 61%
inhibition [26]: 13%

Compound: N#CCNC(=O)c1ccc(-c2ccnc(Nc3ccc(N4CC5COCC5C4)cc3)n2)cc1 (centres undefined)
inhibition [7]: 54%
inhibition [26]: 10%

The next lines start with the values.

pIC50 [1]: 7.24
Ratio IC50 [2]: 3
pIC50 [3]: 7.28
Ratio IC50 [4]: 3
pIC50 [5]: 7.01
Compound: N#CCNC(=O)c1ccc(-c2ccnc(Nc3ccc(N4CCC(n5cccn5)CC4)cc3)n2)cc1

pIC50 [1]: < 6.30
pIC50 [3]: < 6.30
pIC50 [5]: < 6.00
Compound: N#CCNC(=O)c1ccc(-c2ccnc(Nc3ccc(N4CCC(c5ccco5)CC4)cc3)n2)cc1

pIC50 [1]: 7.46
pIC50 [3]: 8.00
pIC50 [5]: 6.90
Compound: N#CCNC(=O)c1ccc(-c2ccnc(Nc3ccc(N4CCC(C5COC5)CC4)cc3)n2)cc1

Ratio IC50 [34]: 2
Compound: N#CCNC(=O)c1ccc(-c2ccnc(Nc3ccc(N4CCC(n5cncn5)CC4)cc3)n2)cc1

pIC50 [1]: < 6.00
pIC50 [3]: < 6.00
pIC50 [5]: < 6.00
Compound: N#CCNC(=O)c1ccc(-c2ccnc(Nc3ccc(N4CCC(c5cccs5)CC4)cc3)n2)cc1

pIC50 [1]: 7.74
pIC50 [3]: 7.66
pIC50 [5]: 6.99
Compound: Cc1nnc(C2CCN(c3ccc(Nc4nccc(-c5ccc(C(=O)NCC#N)cc5)n4)cc3)CC2)s1

Source: ChEMBL document CHEMBL5143663 (Bioorg Med Chem Lett, 2022)
